Data: patent US6683027B2, “Herbicidal mixtures” (BASF Aktienegesellschaft, priority 2000, dated 2004)

Tests used:
Assay in all cases: greenhouse pre-emergence trial, percent damage vs untreated control 21 days after treatment
Type in all cases: in vivo
[1] = system: Lolium perenne; settings: 15 g/ha, LOLPE, Example 2
[2] = system: Papaver rhoeas; settings: PAPRH, Example 2
[3] = system: Stellaria media; settings: 30 g/ha, STEME, Example 2
[4] = system: Veronica persica; settings: VERPE, Example 2
[5] = system: Galium aparine; settings: GALAP, Example 2
[6] = system: Matricaria inodora; settings: MATIN, Example 2

CC(C)N(C(=O)COc1nnc(C(F)(F)F)s1)c1ccc(F)cc1 [flufenacet]
flufenacet alone (% control) [1]: 30% | flufenacet alone (% control) ([2]; 15 g/ha): 0% | flufenacet alone (% control) ([2]; 30 g/ha): 0% | flufenacet alone (% control) ([2]; 60 g/ha): 0% | flufenacet alone (% control) [3]: 0% | flufenacet alone (% control) ([4]; 15 g/ha): 0% | flufenacet alone (% control) ([4]; 30 g/ha): 10% | flufenacet alone (% control) ([4]; 60 g/ha): 10% | flufenacet alone (% control) ([5]; 15 g/ha): 0% | flufenacet alone (% control) ([5]; 30 g/ha): 10% | flufenacet alone (% control) ([5]; 60 g/ha): 55% | flufenacet alone (% control) ([6]; 15 g/ha): 0% | flufenacet alone (% control) ([6]; 30 g/ha): 0%
